For 99 compounds, cytotoxicity results are on record in ChEMBL document CHEMBL3507680, “University of Dundee, Gates Library screen for HepG2 cell viability”.

The nature of this data set: Human HepG2 cell viability assay in 384 well format. The note with it: HepG2 cells, read-out: Inhibition. Details: dose 125 nL, time 70.5 hour; cytotoxicity at 70.5 h: concentration not given beside the values. The class given is toxicity, cell-based.
Consider `CCc1csc(C2CCCN(C(=O)c3ccccn3)C2)n1` (centres undefined), for which the cytotoxicity at 70.5 h was -7.06%.
With `COCCN1CC2(CCC1=O)CCN(Cc1nnc(C)o1)CC2`, the cytotoxicity at 70.5 h was -5.52%.
Then `CCOCc1nc2c(c(NC(COC)c3ccccn3)n1)CCNCC2` (centres undefined), with -3.42%; and `Cc1n[nH]c(C2CN(CC(=O)NCc3cccs3)CCO2)n1` (centres undefined), with -86.1%; and `Cc1nnc(CN(C)CC2(O)CCCN(CCC3CCCCC3)C2=O)o1` (centres undefined), with 2.51%.
Consider `Cn1ncc2c(N3CCC(F)(F)CC3)nc(-c3ccncc3)nc21`, for which the cytotoxicity at 70.5 h is -13.7%.
For `O=C(C1CC1)N1CCC(c2nc(-c3ccccc3)n[nH]2)CC1`, the cytotoxicity at 70.5 h was -1.09%.
Then `Cc1cc(-c2ccccc2C(=O)O)nc(C2CCCN(C)C2)n1` (centres undefined), with -7.61%; and `COc1ccccc1C(=O)N1CC(=O)N(CC2CC2)CC(O)C1` (centres undefined), with -0.352%; and `CCN(Cc1ccc(F)cc1Cl)C1CCS(=O)(=O)C1` (centres undefined), with -19.3%.
As to `Cc1nc(CN2CCCC(N(C)CCCc3ccccc3)C2)no1` (centres undefined), the cytotoxicity at 70.5 h is -5.01%.
In the case of `CSCc1noc(CNC(=O)C2CCN(C(=O)C3CCC3)CC2)n1`, the cytotoxicity at 70.5 h is -11.8%.
Then `CCN(CC)S(=O)(=O)c1ccc2c(c1)N(Cc1ccccn1)C(=O)CS2`, with -4.62%.
Then `CC(CN1CCCC1)C(=O)N1CCC(c2nccn2CC2CC2)CC1` (centres undefined), with 12.9%; and `CC(COc1ccccc1)NCc1cn2ccccc2n1` (centres undefined), with -4.87%.
With `CN(C)CCN1C(=O)CCCC12CCCN(C(=O)c1cc[nH]n1)C2` (centres undefined), the cytotoxicity at 70.5 h was -4.9%.
Turning to `Cc1nn(C(C)C)c(C)c1CN1CCC(c2cc(C(C)C)n[nH]2)CC1`, the cytotoxicity at 70.5 h is -0.772%.
Turning to `Cc1ccc(-n2ncc(C(=O)N(C)C3CCN(C)CC3)c2N)cc1C`, the cytotoxicity at 70.5 h came to 8.36%.
Then `Cc1oc(-c2ccsc2)nc1CC(=O)NCCCS(C)(=O)=O`, with 15.4%; and `Cc1cnn(CC2CCCCN2C(=O)Cn2nc(C)c(Cl)c2C)c1` (centres undefined), with -4.01%.
`N#Cc1ccc(N2CCN(c3nccs3)CC2)nc1`: the cytotoxicity at 70.5 h was -0.838%.
Consider `O=S(=O)(NCc1ccc(S(=O)(=O)N2CCCC2)s1)c1cc(Cl)ccc1Cl`, for which the cytotoxicity at 70.5 h was -14.9%.
As for `CN(C)Cc1cc(=O)n2c(n1)CN(CC1CC1)CCC2`, the cytotoxicity at 70.5 h is -6.12%.
In the case of `CN(CCc1ccc(F)cc1)Cc1nc2c(cnn2C)c(=O)[nH]1`, the cytotoxicity at 70.5 h stood at 11.7%.
As for `COc1cccc(COCC(=O)N2CCCN(CC(N)=O)CC2)c1`, the figure is -9.55%; as for `CC(C)[C@@H]1CN(Cc2ccsc2)C[C@H]1NS(=O)(=O)N(C)C`, 1.27%.
As for `O=C(C[C@@H]1COC[C@H]2CN(Cc3ccsc3)C[C@@H]12)N1CCCC1`, the figure is -3.89%; as for `CS(=O)(=O)c1ccc(NC(=O)CSc2ccc3c(c2)CCC3)cn1`, -14.4%.
Then `Cc1ccc(C(O)CNC(=O)NCc2nc(C)cs2)cc1` (centres undefined), with -2.07%; and `CCS(=O)(=O)N1C[C@H]2CN(Cc3cccc(C)c3)C(=O)[C@H]2C1`, with -10.5%.
For `CCOC(=O)c1ccc(Nc2ccc(OC)c(N3CCCC3=O)c2)nc1`, the cytotoxicity at 70.5 h is -14.4%.
Consider `Cc1ccc2nc(CNCCCOc3ccccc3)cc(O)c2c1` [UCSF924], for which the cytotoxicity at 70.5 h was -2.02%.
As for `COC(=O)C(NC(=O)c1ccco1)c1cc(F)ccc1F` (centres undefined), the cytotoxicity at 70.5 h is -15.6%.
Take `Cc1ccc2cc(CNCCCN3CCOCC3)c(=O)[nH]c2c1`: the cytotoxicity at 70.5 h is -13%.
`CC(Cn1cccn1)NC(=O)Nc1ccccn1` (centres undefined): the cytotoxicity at 70.5 h is -8.38%.
As for `Cn1cnnc1C1CCCN(C(=O)COc2ccccc2Cl)C1` (centres undefined), the figure is -6.87%.
`FC(F)(F)CCc1ccnc(N2CCN(Cc3ccncc3)CC2)n1`: the cytotoxicity at 70.5 h was -13.8%.
Consider `C[C@@H](CO)NC(=O)c1ccc2nc(NS(C)(=O)=O)sc2c1`, for which the cytotoxicity at 70.5 h was -2.43%.
For `Cc1cc(NC(=O)CNc2cccc(OC(F)F)c2C)n(C)n1`, the cytotoxicity at 70.5 h is -6.65%.
For `Cc1cc(C(F)(F)F)cc(N2CCC3(CCC(=O)N(CCO)C3)CC2)n1`, the cytotoxicity at 70.5 h is -4.65%.
With `CC(C(=O)NCC(C)(C)c1ccc(Br)cc1)n1cncn1` (centres undefined), the cytotoxicity at 70.5 h was -12.2%.
For `COC[C@@]12CCC[C@@H]1CN(C(=O)COc1ccccc1OC)C2`, the cytotoxicity at 70.5 h is -3.63%.
As for `CNS(=O)(=O)c1cccc(CNc2ccc(C#N)cn2)c1`, the cytotoxicity at 70.5 h is -7.11%.
Consider `O=C(c1cnccn1)N1CCN(c2ccnc3ccsc23)CC1`, for which the cytotoxicity at 70.5 h is -13.2%.
In the case of `Cc1cccc(CN2CCC(c3csc4nccn34)CC2)n1`, the cytotoxicity at 70.5 h was found to be 0.645%.
With `O=C(NCCNc1ncccn1)C1CCN(C(=O)N2CCCC2)CC1`, the cytotoxicity at 70.5 h was -12.3%.
For the compound `O=C(Cn1nc(C(F)(F)F)c(Br)c1C1CC1)N1CCOCC1`, the cytotoxicity at 70.5 h was -5.88%.
With `CN(C)C(CNC(=O)N(Cc1ccco1)C1CC1)c1cccs1` (centres undefined), the cytotoxicity at 70.5 h is -11.4%.
Regarding `CC(C)NC(=O)C1CCC2(CCN(c3ncccn3)CC2)CO1` (centres undefined), the cytotoxicity at 70.5 h was -9.99%.
For `CCc1ccc(C(=O)NC(C)c2ccc(S(C)(=O)=O)c(F)c2)o1` (centres undefined), the cytotoxicity at 70.5 h worked out at 13.1%.
Consider `Cc1noc(CN(C)Cc2cnc(N3CCOCC3)nc2)n1`, for which the cytotoxicity at 70.5 h is -6.57%.
Then `COCCc1nnc(NC(=O)CSCc2ccccc2)o1`, with 1.82%; and `CN(C)C(C)(C)CNCc1cn(C)nc1-c1cccnc1`, with 17.8%.
As to `O=C(c1ccnc(N2CCOC(C(F)(F)F)C2)c1)N1CCOCC1` (centres undefined), the cytotoxicity at 70.5 h is -19.7%.
Then `CC(Cn1ccnc1)NC(=O)NCCc1cccnc1` (centres undefined), with -2.45%; and `O=C(NCCCn1cccn1)NCC(c1ccco1)N1CCCC1` (centres undefined), with -2.3%.
As for `CCC(CN1CCCC1)NC(=O)C1(c2ccc(F)cc2)CC1` (centres undefined), the figure is -7.41%.
Take `CC(C)c1nsc(N2CCOC3(CCCC3)C2)n1`: the cytotoxicity at 70.5 h was -2.46%.
For the compound `O=C(c1ccncc1)N1CC[C@@H]2CN(C3CCOCC3)CCO[C@@H]2C1`, the cytotoxicity at 70.5 h is -9.58%.
Turning to `COCCC(=O)N1CCC2(CN(Cc3cccc(F)c3)C2)C1`, the cytotoxicity at 70.5 h is -7.85%.
As for `COc1ccc(C(CNS(=O)(=O)c2cn(C)nc2C)N2CCCC2)cc1` (centres undefined), the cytotoxicity at 70.5 h is 26.7%.
`CCn1ccnc1S(=O)(=O)Cc1ccc(C(N)=O)cc1`: the cytotoxicity at 70.5 h is -2.48%.
`COc1ccc2c(c1)C(=O)NC1(CC2)CCN(Cc2ccccc2)C1` (centres undefined): the cytotoxicity at 70.5 h is -3.55%.
In the case of `CN(CCOCC1CC1)C(=O)Nc1ccc(C#N)c(Cl)c1`, the cytotoxicity at 70.5 h was -0.0375%.
As for `COc1ccccc1OCCc1cc(C2CCNC2)n[nH]1` (centres undefined), the figure is -6.36%; as for `CC(=O)Nc1nc(CNc2ccccc2CCC(F)(F)F)cs1`, -12%.
With `Cc1cccc(-c2ccc(C(=O)NCC(C)(C)C(N)=O)c(=O)[nH]2)c1`, the cytotoxicity at 70.5 h was -18.8%.
Take `CCn1nc(C)c(CN2CCCC(c3ccc(C(=O)O)cc3)C2)c1C` (centres undefined): the cytotoxicity at 70.5 h came to 24.4%.
As for `COCCOc1ccc(NC(=O)N(CCO)C2CC2)cn1`, the cytotoxicity at 70.5 h is -10.9%.
As for `COc1ccccc1OCC(=O)NS(=O)(=O)c1ccc(Cl)s1`, the cytotoxicity at 70.5 h is -2.89%.
Turning to `CC(C)C(NC(=O)Cn1ccc(=O)n(C)c1=O)c1ccc(F)cc1` (centres undefined), the cytotoxicity at 70.5 h is -13.2%.
Turning to `NC(=O)CN1C[C@@H](c2ccccc2F)[C@@]2(CCCCC(=O)N2)C1`, the cytotoxicity at 70.5 h was -7.09%.
On to `CC(Nc1cccc2c1OCCO2)C(=O)NC(N)=O` (centres undefined), for which the cytotoxicity at 70.5 h was -2.31%.
Turning to `CC(C)c1nnc2n1CC(CNCc1ccncc1)CC2` (centres undefined), the cytotoxicity at 70.5 h was -3.85%.
As for `CCn1cc(C(=O)NC2CCN(S(C)(=O)=O)CC2)c2ccccc21`, the cytotoxicity at 70.5 h is -9.93%.
As for `Cc1ccc(C(=O)O)cc1S(=O)(=O)N(C)c1cccc(C#N)c1`, the figure is -7.91%.
In the case of `Cc1c(OCC(=O)NCc2ccccc2Cl)c(=O)ccn1C`, the cytotoxicity at 70.5 h is -23.2%.
On to `COc1cc(CCC(=O)NC2CCN(C)CC2)ccc1OCC(F)(F)F`, for which the cytotoxicity at 70.5 h was -7.75%.
Take `O=C(CCN1CCCC1c1cccc2c1OCCO2)N1CCCCC1` (centres undefined): the cytotoxicity at 70.5 h was -6.86%.
Turning to `O=C(c1cccnc1)N1CCSCC1`, the cytotoxicity at 70.5 h was -16.5%.
In the case of `CCC1(O)CCCN(c2nc(-c3ccccn3)nc3c2c(C)nn3C)C1` (centres undefined), the cytotoxicity at 70.5 h was -2.92%.
Turning to `O=S(=O)(N1CCCCC1)N1CCCN(CC2CCCO2)CC1` (centres undefined), the cytotoxicity at 70.5 h was 1.43%.
As to `Cc1nc(C2CCCN(C(=O)c3ccncc3)C2)c2sccn12` (centres undefined), the cytotoxicity at 70.5 h came out at 21.5%.
Then `CCS(=O)(=O)N1CCC(c2nccn2Cc2ccccn2)CC1`, with -5.3%.
On to `Cc1cccc(-c2nc(CN3CCn4c(nnc4C4CC4)C3)no2)c1`, for which the cytotoxicity at 70.5 h is -12.1%.
For the compound `Cc1nc(N)cc(N2CCCC(COc3cccc(F)c3)C2)n1` (centres undefined), the cytotoxicity at 70.5 h is -16.1%.
Consider `COc1ccc(C(=O)N2Cc3c(Cn4ccnc4)nn(C)c3C2)cc1`, for which the cytotoxicity at 70.5 h is -8.74%.
`CN1CCC(CCNC(=O)N2CCN(Cc3ccon3)CC2)CC1`: the cytotoxicity at 70.5 h worked out at 14.9%.
Regarding `c1cncc(-c2noc(C3CN(Cc4cccs4)C3)n2)c1`, the cytotoxicity at 70.5 h is -12.2%.
Then `CNC(=O)NC(=O)CN(Cc1ccc(C#N)cc1)Cc1cccc(F)c1`, with -2.77%; and `Cc1nc(C)n(CC2CCCCN2CCCO)n1` (centres undefined), with 9.77%.
As for `Cc1nccn1-c1nccnc1C1CCCN(C2CCCC2)C1` (centres undefined), the cytotoxicity at 70.5 h was determined as 14.2%.
For the compound `O=C(c1ccno1)N1C[C@@H](F)[C@@H](OCc2nc3ccccc3o2)C1`, the cytotoxicity at 70.5 h turned out to be 0.816%.
`CCn1nc(C)cc1C(=O)N1C[C@@H]2C[C@@H](c3noc(C)n3)O[C@@H]2C1`: the cytotoxicity at 70.5 h was -6.34%.
For the compound `N#Cc1cccc(NC(=O)N2CCC3(CCC(=O)N(C4CC4)C3)CC2)c1`, the cytotoxicity at 70.5 h is -2.97%.
Then `CS(=O)(=O)NCc1cncc2c1CCN(CC1CCOC1)C2` (centres undefined), with 2.49%; and `CCOC1COC2(CCN(S(=O)(=O)c3cccc(C)c3)CC2)C1` (centres undefined), with -6.02%; and `CC(C)OCCC(=O)NCCc1csc(N2CCCC2)n1`, with 5.53%.
Take `O=C(CC1CC1)N[C@@H]1CN(Cc2cccnc2)C[C@@H]2CCCO[C@@H]21`: the cytotoxicity at 70.5 h was -4.07%.
